{"source": "patent US20220324808A1", "about": "“Co-crystal of Compound I Dihydrochloride and Preparation Method and Use Thereof” (CRYSTAL PHARMACEUTICAL (SUZHOU) CO., LTD., priority 2020, published 2022)", "key": {"[1]": {"details": "cited from earlier work; for crystalline form conversion at low humidity: under 5% RH"}, "[2]": {"experiment": "Adhesiveness (material sticking to the punch)", "type": "physicochemical", "details": "30 mg, φ8 mm round tooling, 10 KN; for Maximum amount (mg) of material sticking to the punch: held 30 s", "procedure": "30 mg of Form CSI, Form CSIII and prior art Form A were weighed and then added into the dies of φ8 mm round tooling, compressed at 10 KN and held for 30 s. The punch was weighed and the amount of material sticking to the punch was calculated. The compression was repeated twice and the maximum amount of material sticking to the punch during the compression were recorded."}, "[3]": {"experiment": "Mechanical stability: manual grinding, XRPD before and after", "type": "physicochemical", "details": "ground manually for 5 minutes in mortar", "procedure": "Solid sample of prior art Form A, Form CSI and Form CSIII of the present disclosure were separately grounded manually for 5 minutes in mortars. The XRPD patterns overlay before and after grinding is shown in FIG. 14, FIG. 15 and FIG. 16."}, "[4]": {"experiment": "Compressibility (manual tablet press, tensile strength)", "type": "physicochemical", "details": "10 KN", "procedure": "A manual tablet press was used for compression. 60 mg of Form CSIII and prior art Form A were weighed and added into the dies of a φ6 mm round tooling, compressed at 10 KN manually, then stored at room temperature for 24 h until complete elastic recovery, diameter (D) and thickness (L) were tested with a caliper. Hardness (H) was tested with an intelligent tablet hardness tester. Tensile strength of the powder was calculated with the following formula: T=2H/πDL. Under a certain force, the greater the tensile strength, the better the compressibility."}, "[5]": {"details": "heated to 75-100° C.; WO2014152270A1; cited from earlier work"}, "[6]": {"experiment": "Crystalline form before and after formulation process (XRPD)", "type": "physicochemical", "details": "dry granulation and tableting", "excerpt": "The formulation and preparation process of Form CSI and Form CSIII are shown in Table 16 and Table 17, respectively."}, "[7]": {"experiment": "Mechanical stability: tableting under different pressure, XRPD", "type": "physicochemical", "details": "5 kN, 10 kN, 20 kN pressure", "excerpt": "A certain amount of Form CSI and Form CSIII were compressed into tablets under 5 kN, 10 kN, 20 kN pressure with suitable tableting die. Crystalline form before and after tableting were checked by XRPD."}, "[8]": {"experiment": "Humidity stability by DVS", "type": "physicochemical", "details": "humidity range 0-95% RH, XRPD before and after", "procedure": "Dynamic Vapor Sorption (DVS) was measured via an SMS (Surface Measurement Systems Ltd.) intrinsic DVS instrument. Typical Parameters for DVS test are as follows:\nGas and flow rate: nitrogen, 200 mL/min\nRate of mass change: 0.002%/min\nRH range: 0% RH to 95% RH\nDVS was applied to test the stability of Form CSI under different humidity with about 10 mg of samples. The weight change at each relative humidity were recorded in a humidity range of 0-95% RH.\nDVS was applied to test the stability of Form CSIII under different humidity with about 10 mg of samples. The weight change at each relative humidity were recorded in a humidity range of 0-95% RH."}, "[9]": {"experiment": "Storage stability of drug substance (crystalline form by XRPD, chemical impurity by HPLC)", "type": "physicochemical", "excerpt": "(§1) Crystalline form and chemical impurity were checked by XRPD and HPLC, respectively.\nas §1"}, "[10]": {"details": "60 mg, φ6 mm round tooling, after 24 h"}, "[11]": {"details": "25° C./60% RH (sealed), 6 Months"}, "[12]": {"details": "40° C./75% RH (sealed), 6 Months"}, "[13]": {"details": "60° C./75% RH (sealed), 1 Month"}}, "note": "Where two headings read alike, the source gives them in different places."}
{"compound": "COC(=O)N1CCN(Cc2cccc(NC(=O)Nc3ccc(C)nc3)c2F)CC1.Cl.Cl.O", "note": "[Form A]", "values": [{"measurement": "weight loss", "setting": "[1]; DVS, between about 30% RH and about 5% RH, WO2014152270A1", "result": "about 2.7 wt %"}, {"measurement": "total weight gain", "setting": "[1]; DVS, between about 40% RH and about 95% RH, WO2014152270A1", "result": "about 0.55 wt %"}, {"measurement": "crystalline form conversion at low humidity", "setting": "[1]", "result": "converted to dehydrated state Form C"}, {"measurement": "crystalline form conversion at low humidity", "setting": "[1]; listed as prior art Form A", "result": "converted to Form C"}, {"measurement": "Maximum amount (mg) of material sticking to the punch", "setting": "[2]", "result": 2.83, "unit": "mg"}, {"measurement": "crystal form and crystallinity after grinding", "setting": "[3]", "result": "crystallinity of prior art Form A decreases after grinding"}, {"measurement": "Diameter (mm)", "setting": "[4]; [10]", "result": 6.00, "unit": "mm"}, {"measurement": "Hardness (kgf)", "setting": "[4]; [10]", "result": 3.38, "unit": "kgf"}, {"measurement": "Thickness (mm)", "setting": "[4]; [10]", "result": 1.67, "unit": "mm"}, {"measurement": "Tensile strength (MPa)", "setting": "[4]; T=2H/πDL", "result": 2.11, "unit": "MPa"}, {"measurement": "crystalline form conversion on heating", "setting": "[5]", "result": "converts to Form B"}]}
{"compound": "COC(=O)N1CCN(Cc2cccc(NC(=O)Nc3ccc(C)nc3)c2F)CC1.COC(=O)N1CCN(Cc2cccc(NC(=O)Nc3ccc(C)nc3)c2F)CC1.Cl.Cl.Cl.Cl.O=C(O)/C=C/C(=O)O", "note": "[Form CSI]", "values": [{"measurement": "crystalline form before and after the formulation process", "setting": "[6]", "result": "remain stable before and after the formulation process"}, {"measurement": "crystalline form after tableting", "setting": "[7]", "result": "no crystal transformation after tableting under different pressure"}, {"measurement": "crystalline state after DVS test", "setting": "[8]", "result": "remains unchanged"}, {"measurement": "Purity (%)", "setting": "[9]; 25° C./60% RH (open), 6 Months", "result": 99.66, "unit": "%"}, {"measurement": "Solid Form", "setting": "[9]; 25° C./60% RH (open), 6 Months", "result": "Form CSI"}, {"measurement": "Purity (%)", "setting": "[9]; [11]", "result": 99.65, "unit": "%"}, {"measurement": "Solid Form", "setting": "[9]; [11]", "result": "Form CSI"}, {"measurement": "storage stability (in words)", "setting": "[9]; 25° C./60% RH and 40° C./75% RH", "result": "stable for at least six months"}, {"measurement": "Purity (%)", "setting": "[9]; 40° C./75% RH (open), 6 Months", "result": 99.65, "unit": "%"}, {"measurement": "Solid Form", "setting": "[9]; 40° C./75% RH (open), 6 Months", "result": "Form CSI"}, {"measurement": "Purity (%)", "setting": "[9]; [12]", "result": 99.64, "unit": "%"}, {"measurement": "Solid Form", "setting": "[9]; [12]", "result": "Form CSI"}, {"measurement": "storage stability (in words)", "setting": "[9]; 60° C./75% RH", "result": "stable for at least one month"}, {"measurement": "Purity (%)", "setting": "[9]; [13]", "result": 99.70, "unit": "%"}, {"measurement": "Solid Form", "setting": "[9]; [13]", "result": "Form CSI"}, {"measurement": "Purity (%)", "setting": "[9]; Initial", "result": 99.71, "unit": "%"}, {"measurement": "Solid Form", "setting": "[9]; Initial", "result": "Form CSI"}, {"measurement": "maximum amount relative to that of the prior art Form A", "setting": "[2]", "result": "less than ⅕"}, {"measurement": "Maximum amount (mg) of material sticking to the punch", "setting": "[2]", "result": 0.48, "unit": "mg"}, {"measurement": "crystal form and crystallinity after grinding", "setting": "[3]", "result": "no crystal transformation and the crystallinity almost has no change after grinding"}]}
